Laboratory results from patent US11214594B2, “Antimicrobial peptide having synergistic antibacterial effect with antibiotics on multidrug resistant bacteria, and use thereof” (priority 2016, dated 2022).
Values after ≈ are worked out from the molar mass of the structure shown. Like-named read-outs stand apart in the source and are kept apart here. Where a SMILES comes first, the peptide text is derived from it.

Columns and labels:
MDRST 8009 = format: cell-based, Salmonella typhimurium; conditions: agent alone
Procedure: (§1) For the antibacterial activity, a minimal inhibitory concentration (MIC) of a peptide in which fungus bodies were not split in an MH medium with sufficient nutrients was measured.
(§2) Specifically, the strains described in the following [Table 2] were purchased and diluted with an MH medium such that the number of bacteria was 2×10^6 colony-forming units (CFUs), 100 μl of each of the diluted strains was aliquoted into a 96-well microtiter plate, and then 100 μl of a peptide solution diluted with the MH medium (solution diluted stepwise at 2: 1) was added to each well.

MDREC 1229 = test: microbe, parasite or virus in culture; format: cell-based, Escherichia coli
Procedure: as §1, §2

MDRAB 12036 = format: cell-based, Acinetobacter baumannii
Procedure: as §1, §2

MDRST 8007 = test: Minimal inhibitory concentration (MIC), single agent; format: cell-based, Salmonella typhimurium; conditions: agent alone
Procedure: as §1, §2

MDRAB 12035 = test: microbe, parasite or virus in culture; format: cell-based, Acinetobacter baumannii
Procedure: as §1, §2

A. baumannii [1] = test: microbe, parasite or virus in culture; format: cell-based, Acinetobacter baumannii
Procedure: as §1, §2

MRSA 3126 = format: cell-based, Staphylococcus aureus
Procedure: as §1, §2

MRSA 3114 = format: cell-based, Staphylococcus aureus
Procedure: as §1, §2

S. epidermidis = test: microbe, parasite or virus in culture; format: cell-based, Staphylococcus epidermidis
Procedure: as §1, §2

MDREC 1238 = format: cell-based, Escherichia coli
Procedure: as §1, §2

MDRPA 2002 = format: cell-based, Pseudomonas aeruginosa
Procedure: as §1, §2

MDRPA 2003 = format: cell-based, Pseudomonas aeruginosa
Procedure: as §1, §2

E. coli [2] = test: microbe, parasite or virus in culture; format: cell-based, Escherichia coli
Procedure: as §1, §2

S. aureus = test: microbe, parasite or virus in culture; format: cell-based, Staphylococcus aureus
Procedure: as §1, §2

P. aeruginosa = test: microbe, parasite or virus in culture; format: cell-based, Pseudomonas aeruginosa
Procedure: as §1, §2

gram-positive bacteria = test: MIC, summary statements for gram-positive bacteria; format: cell-based
Procedure: as §1, §2

A. baumannii [3] = test: MIC of antimicrobial peptide during combined treatment with antibiotic; format: cell-based, Acinetobacter baumannii
Procedure: (§3) Specifically, the strains described in [Table 2] were prepared and diluted with an MH medium such that the number of bacteria was 2×10^6 colony-forming units (CFUs) per 1 ml, 100 μl of the diluted strains was each aliquoted into a 96-well microtiter plate, and then 50 μl of a peptide solution diluted with the MH medium from the MIC value (solution diluted stepwise at 2: 1) was added to each well. Thereafter, the MIC value of each mixed solution was determined by diluting the antibiotic solution with the MH medium, adding 50 μl of the diluted solution to each well, and performing an experiment even under a reversed condition.

B. subtilis = test: microbe, parasite or virus in culture; format: cell-based, Bacillus subtilis
Procedure: as §1, §2

gram-negative bacteria = test: MIC, summary statements for gram-negative bacteria; format: cell-based; conditions: gram-negative bacteria
Procedure: as §1, §2

E. coli [4] = test: MIC of antibiotic during combined treatment with antimicrobial peptide; format: cell-based, Escherichia coli; conditions: E. coli and A. baumannii; antibiotic MIC with papiliocin
Procedure: Thereafter, the MIC value of each mixed solution was determined by diluting the antibiotic solution with the MH medium, adding 50 μl of the diluted solution to each well, and performing an experiment even under a reversed condition.

S. typhimurium = test: microbe, parasite or virus in culture; format: cell-based, Salmonella typhimurium
Procedure: as §1, §2

E. coli [5] = format: cell-based, Escherichia coli; conditions: for Peptide MIC during treatment with erythromycin / Peptide MIC during treatment with linezolid / Peptide MIC during treatment with vancomycin: E. coli
Procedure: as §3

[6] = linezolid 32 μg/ml (Conc./MIC 1/8)
[7] = linezolid 64 μg/ml (Conc./MIC 1/4)
[8] = vancomycin 512 μg/ml (Conc./MIC 1/2)
[9] = vancomycin 1024 μg/ml (Conc./MIC 1)

SMILES: CC[C@H](C)[C@H](NC(=O)CN)C(=O)NCC(=O)N[C@@H](C)C(=O)N[C@H](C(=O)N[C@@H](CC(C)C)C(=O)N[C@@H](CCCCN)C(=O)N[C@H](C(=O)N[C@@H](CC(C)C)C(=O)N[C@H](C(=O)N[C@H](C(=O)NCC(=O)N[C@@H](CC(C)C)C(=O)N1CCC[C@H]1C(=O)N[C@@H](C)C(=O)N[C@@H](CC(C)C)C(=O)N[C@H](C(=O)N[C@@H](CO)C(=O)N[C@@H](Cc1c[nH]c2ccccc12)C(=O)N[C@H](C(=O)N[C@@H](CCCCN)C(=O)N[C@@H](CCCNC(=N)N)C(=O)N[C@@H](CCCCN)C(=O)N[C@@H](CCCNC(=N)N)C(=O)N[C@@H](CCC(N)=O)C(=O)N[C@@H](CCC(N)=O)C(N)=O)[C@@H](C)CC)[C@@H](C)CC)[C@@H](C)O)[C@@H](C)O)C(C)C)C(C)C [Melittin, reference compound]
- Minimal inhibitory concentration MIC (MDRST 8009): 32 µg/mL (≈ 11.2 µM)
- Minimal inhibitory concentration MIC (MDREC 1229; MDREC 1229, agent alone): 16 µg/mL (≈ 5.62 µM)
- Minimal inhibitory concentration MIC (MDRAB 12036; MDRAB 12036, agent alone): 16 µg/mL (≈ 5.62 µM)
- Minimal inhibitory concentration MIC (MDRST 8007): 32 µg/mL (≈ 11.2 µM)
- Minimal inhibitory concentration MIC (MDRAB 12035; MDRAB 12035, agent alone): 8 µg/mL (≈ 2.81 µM)
- Minimal inhibitory concentration MIC (A. baumannii [1]; A. baumannii, agent alone): 8 µg/mL (≈ 2.81 µM)
- Minimal inhibitory concentration MIC (MRSA 3126; MRSA 3126, agent alone): 16 µg/mL (≈ 5.62 µM)
- Minimal inhibitory concentration MIC (MRSA 3114; MRSA 3114, agent alone): 8 µg/mL (≈ 2.81 µM)
- Minimal inhibitory concentration MIC (S. epidermidis; S. epidermidis, agent alone): 16 µg/mL (≈ 5.62 µM)
- Minimal inhibitory concentration MIC (MDREC 1238; MDREC 1238, agent alone): 32 µg/mL (≈ 11.2 µM)
- Minimal inhibitory concentration MIC (MDRPA 2002; MDRPA 2002, agent alone): 16 µg/mL (≈ 5.62 µM)
- Minimal inhibitory concentration MIC (MDRPA 2003; MDRPA 2003, agent alone): 16 µg/mL (≈ 5.62 µM)

SMILES: CC[C@H](C)[C@H](NC(=O)CNC(=O)[C@H](CC(=O)O)NC(=O)[C@H](CCCNC(=N)N)NC(=O)[C@@H](NC(=O)[C@H](CC(N)=O)NC(=O)[C@H](CCCNC(=N)N)NC(=O)CNC(=O)[C@@H](NC(=O)[C@H](CCCCN)NC(=O)[C@H](CCC(=O)O)NC(=O)[C@@H](NC(=O)[C@H](CCCCN)NC(=O)[C@H](CCCCN)NC(=O)[C@H](Cc1ccccc1)NC(=O)[C@@H](NC(=O)[C@H](CCCCN)NC(=O)[C@H](Cc1c[nH]c2ccccc12)NC(=O)[C@@H](N)CCCNC(=N)N)[C@@H](C)CC)[C@@H](C)CC)C(C)C)C(C)C)C(=O)N[C@H](C(=O)N[C@@H](CCCCN)C(=O)N[C@@H](C)C(=O)NCC(=O)N1CCC[C@H]1C(=O)N[C@@H](C)C(=O)N[C@H](C(=O)N[C@@H](C)C(=O)N[C@H](C(=O)N[C@H](C(=O)NCC(=O)N[C@@H](CCC(N)=O)C(=O)N[C@@H](C)C(=O)N[C@@H](C)C(=O)N[C@H](C(=O)N[C@H](C(=O)N[C@H](C(=O)N[C@@H](CCCCN)C(N)=O)C(C)C)C(C)C)[C@@H](C)O)C(C)C)C(C)C)C(C)C)[C@@H](C)CC [Papiliocin, reference compound] (H-RWKIFKKIEKVGRNVRDGIIKAGPAVAVVGQAATVVK-NH2; N-terminus and C-terminus assumed)
- Peptide MIC, single treatment (E. coli [2]): 8 µg/mL
- Minimal inhibitory concentration MIC (E. coli [2]; 16 h): 8 µg/mL (≈ 2 µM)
- Minimal inhibitory concentration MIC (MDREC 1229): 8 µg/mL (≈ 2 µM)
- Minimal inhibitory concentration MIC (S. aureus): >128 µg/mL
- Minimal inhibitory concentration MIC (P. aeruginosa): 16 µg/mL (≈ 4 µM)
- Antibacterial activity (in words) (gram-positive bacteria): very low antibacterial activity
- Minimal inhibitory concentration MIC (MDRAB 12036): 16 µg/mL (≈ 4 µM)
- Peptide MIC during treatment with erythromycin (A. baumannii [3]; erythromycin 4 μg/ml (Conc./MIC 1/8)): 8 µg/mL
- Peptide MIC during treatment with erythromycin (A. baumannii [3]; erythromycin 8 μg/ml (Conc./MIC 1/4)): 4 µg/mL
- Peptide MIC during treatment with erythromycin (A. baumannii [3]; erythromycin 16 μg/ml (Conc./MIC 1/2)): 4 µg/mL
- Peptide MIC during treatment with erythromycin (A. baumannii [3]; erythromycin 32 μg/ml (Conc./MIC 1)): 0 µg/mL
- Peptide MIC during treatment with linezolid (A. baumannii [3]; [6]): 8 µg/mL
- Peptide MIC during treatment with linezolid (A. baumannii [3]; [7]): 4 µg/mL
- Peptide MIC during treatment with linezolid (A. baumannii [3]; linezolid […] (Conc./MIC 1)): 0 µg/mL
- Peptide MIC during treatment with linezolid (A. baumannii [3]; linezolid […] (Conc./MIC 1/2)): 4 µg/mL
- Peptide MIC during treatment with vancomycin (A. baumannii [3]; [8]): 2 µg/mL
- Peptide MIC during treatment with vancomycin (A. baumannii [3]; [9]): 0 µg/mL
- Peptide MIC during treatment with vancomycin (A. baumannii [3]; vancomycin […] (Conc./MIC 1/4)): 2 µg/mL
- Peptide MIC during treatment with vancomycin (A. baumannii [3]; vancomycin […] (Conc./MIC 1/8)): 4 µg/mL
- Minimal inhibitory concentration MIC (B. subtilis): >128 µg/mL
- Minimal inhibitory concentration MIC (MDRAB 12035): 8 µg/mL (≈ 2 µM)
- Minimal inhibitory concentration MIC (A. baumannii [1]): 8 µg/mL (≈ 2 µM)
- Peptide MIC, peptide alone (A. baumannii [1]): 8 µg/mL
- Antibacterial activity (in words) (gram-negative bacteria): very high antibacterial activity
- Synergistic effect of combination with the antibiotics (in words) (E. coli [4]): does not have a great synergistic effect
- Minimal inhibitory concentration MIC (S. typhimurium): 16 µg/mL (≈ 4 µM)
- Minimal inhibitory concentration MIC (MRSA 3126; 3126): >128 µg/mL
- Minimal inhibitory concentration MIC (MRSA 3114; 3114): >128 µg/mL
- Minimal inhibitory concentration MIC (S. epidermidis): >128 µg/mL
- Minimal inhibitory concentration MIC (MDREC 1238): 16 µg/mL (≈ 4 µM)
- Peptide MIC during treatment with erythromycin (E. coli [5]; erythromycin 16 μg/ml (Conc./MIC 1/8)): 4 µg/mL
- Peptide MIC during treatment with erythromycin (E. coli [5]; erythromycin 32 μg/ml (Conc./MIC 1/4)): 4 µg/mL
- Peptide MIC during treatment with erythromycin (E. coli [5]; erythromycin 64 μg/ml (Conc./MIC 1/2)): 4 µg/mL
- Peptide MIC during treatment with erythromycin (E. coli [5]; erythromycin […] (Conc./MIC 1)): 0 µg/mL
- Peptide MIC during treatment with linezolid (E. coli [5]; [6]): 8 µg/mL
- Peptide MIC during treatment with linezolid (E. coli [5]; [7]): 4 µg/mL
- Peptide MIC during treatment with linezolid (E. coli [5]; linezolid […] (Conc./MIC 1)): 0 µg/mL
- Peptide MIC during treatment with linezolid (E. coli [5]; linezolid […] (Conc./MIC 1/2)): 4 µg/mL
- Peptide MIC during treatment with vancomycin (E. coli [5]; [8]): 2 µg/mL
- Peptide MIC during treatment with vancomycin (E. coli [5]; [9]): 0 µg/mL
- Peptide MIC during treatment with vancomycin (E. coli [5]; vancomycin […] (Conc./MIC 1/4)): 2 µg/mL
- Peptide MIC during treatment with vancomycin (E. coli [5]; vancomycin […] (Conc./MIC 1/8)): 4 µg/mL
- Synergistic effect on peptide MIC when mixed with antibiotics (in words) (E. coli [5]; papiliocin as comparative control (Table 34)): does not have a synergistic effect
- Minimal inhibitory concentration MIC (MDRPA 2002): 16 µg/mL (≈ 4 µM)
- Minimal inhibitory concentration MIC (MDRPA 2003): 16 µg/mL (≈ 4 µM)
